Data taken from patent US7812014B2, “Bicyclic 6-alkylidene-penems as β-lactamase inhibitors” (priority 2002, dated 2010).
Counter-ions that a name gives are not always drawn. Like-named read-outs stand apart in the source and are kept apart here.

Legend:
[1] = target: class B enzyme CcrA (Bacteroides fragilis, UniProt P25910); assay: IC50 determination, β-lactamase inhibition (nitrocefin, spectrophotometric); assay type: biochemical
Method: (§1) IC50 Determination for the Penem Inhibitor
(§2) β-Lactamase inhibitory activity of the penem inhibitors was determined spectrophotometrically as described by Bush et al., [Bush, K., Macalintal, C., Rasmussen, B. A., Lee, V. and Yang, Y. Antimicrobial Agents and Chemotherapy 1993, 37, 851]. Homogeneously purified class A β-lactamases TEM-1 from E. coli and Imi-1 from Enterobacter cloacae, class B enzyme CcrA from Bacteroides fragilis and class C enzyme AmpC from Enterobacter cloaca were employed in the assay. The enzyme concentrations for TEM-1, Imi-1, CcrA and AmpC were 4.3, 7.1, 1.2 and 2.1 nM, respectively. A wide range of inhibitor concentrations were prepared in 50 mM PO4, pH 7.0 to include the possible IC50 values. The substrate used to initiate the enzyme reaction was nitrocefin at 50 μg/ml in the same buffer as the inhibitor. Initially the enzyme and inhibitor (20 μl each) were preincubated for 10 minutes at 25° C. prior to the addition of 160 μl volume of nitrocefin. Initial rates of hydrolysis were monitored for 5 minutes at 495 nm using a Molecular Devices Spectra Max 250 with kinetic protocol of SoftMax Program. Readings from the Spectra Max 250 were exported and transferred to Microsoft Excel. The percent of inhibition of each inhibitor concentration was calculated based on the control enzyme activity. The inhibitor concentration that caused a 50% reduction in the enzymatic activity (IC50) was determined graphically.

[2] = target: class A β-lactamase Imi-1 (Enterobacter cloacae, UniProt Q46991); assay: as above; assay type: biochemical
Method: as §1, §2

[3] = target: class A β-lactamase TEM-1 (Escherichia coli, UniProt P62593); assay: as above; assay type: biochemical, E. coli; settings: enzyme 4.3 nM; 10 minutes preincubation at 25° C.; nitrocefin 50 μg/ml; pH 7.0
Method: as §1, §2

[4] = target: class C enzyme AmpC (Enterobacter cloacae, UniProt P05364); assay: biochemical; design: species or system Enterobacter cloaca
Method: as §1, §2

[5] = test system: Clinical isolates that have been adapted to cause infection in mice; assay: In vivo antibacterial protection, 7 day survival of infected mice; design: species or system mice strain CD-1; settings: Mus musculus, 168 h
Description: In Vivo Antibacterial Protection
Female mice strain CD-1, approximately 18-22 grams, were received from Charles River Laboratories and quarantined 7 days prior to use. In addition, mice may be rendered neutropenic using cytoxan.
Clinical isolates that have been adapted to cause infection in mice, are used in the experiment, including infections with strains of E. coli, K. pneumoniae, M. morganii, E. cloacae, S. marcescens, C. freundii, staphylococci, streptococci, P. aeruginosa and N. gonorrhoeae.
Mice are challenged by injecting 0.5 ml intraperitoneally or 0.05 ml intranasally of a predetermined bacterial inoculum suspended in broth, saline or hog gastric mucin (supplemented with dried bovine hemoglobin for N. gonorrhoeae). […] Antibacterial doses (dose concentration prepared by two fold serial dilutions of the antibiotic) are dissolved or suspended in 0.2% aqueous agar or methocel, phosphate buffered saline or an adjuvant are administered orally, subcutaneously or intravenously in the following manner: • a) Orally or subcutaneously: Dose volume of 0.5 ml administered ½ hr after infection. A second dose may be administered 3 hr. after infection for treatment of infections with more virulent organisms. • b) Intravenously: Dose volume of 0.2 ml, administered ½ hr. after infection. For the treatment of infections with more virulent organisms, more doses, up to 48 hr may be administered. (Intravenous dosing will not exceed 3 doses/24 hr period.) • c) Oral pretreatment: Under special circumstances, the pH of the stomach needs to be adjusted in order to increase the gastric stability of the antibiotic. For this purpose, 0.5 ml of phosphate buffered saline (pH7.8, 0.06M) (or specific approved adjuvant) is administered orally ½ hr after infection, followed 5 minutes later by 0.5 ml of antibiotic (also orally) contained in phosphate buffered saline (pH7.8, 0.06M). Animal Species
A detailed explanation as to the number of animals needed for the determination of in vivo efficacy follows: • A) Novel antibiotics are tested at 5 different dose levels with 5 mice per dose level at each of three routes of administration (oral, subcutaneous and intravenous). […] This would require 25 mice/route with 3 routes/antibiotic or 75 mice per novel compound tested. One to two novel antibiotics will be tested per experiment (75-150 mice) • B) The effectiveness of the new compound must be compared to that of a standard, or antibiotic of known effectiveness. Known or previously tested antibiotics are tested at 5 dose levels with 5 mice per dose level by a single route of administration, for a total of 25 mice/antibiotic. Usually 3-6 antibiotics will be tested per experiment. (75-150 mice). • C) Untreated controls—In each of the above tests, untreated animals are infected with 3 different concentrations of bacterial inoculum with 10 mice per concentration (30 mice total in each and every test). These untreated controls are used to determine and maintain the infection level between 10-100 LD50s as required for test to test comparison and validity. Determination of Protective Effects of Antibacterial Agents:
The protective effects of the antibacterial agent(s) are measured by the survival of the infected untreated as compared to the treated animals. […] A census of survivors is taken twice daily and at that time dead as well as moribund animals are removed. […] The test is performed three times on separate days to provide a statistically valid number of animals and to minimize variation in test results on a day to day and test to test basis.

[6] = enzyme 1.2 nM, 10 minutes preincubation at 25° C., nitrocefin 50 μg/ml, pH 7.0, read-out: IC50 (nM) Class B Ccr
[7] = enzyme 7.1 nM, 10 minutes preincubation at 25° C., nitrocefin 50 μg/ml, pH 7.0, read-out: IC50 (nM) Class A Imi
[8] = enzyme 2.1 nM, 10 minutes preincubation at 25° C., nitrocefin 50 μg/ml, pH 7.0, read-out: IC50 (nM) Class C AmpC
[9] = Ratio of Piperacillin vs. Inhibitor 4:1, read-out: ED50
[10] = Ratio of Piperacillin vs. Inhibitor not given, read-out: ED50

Sequence of class A β-lactamase TEM-1 (P62593 24-286 limits assumed): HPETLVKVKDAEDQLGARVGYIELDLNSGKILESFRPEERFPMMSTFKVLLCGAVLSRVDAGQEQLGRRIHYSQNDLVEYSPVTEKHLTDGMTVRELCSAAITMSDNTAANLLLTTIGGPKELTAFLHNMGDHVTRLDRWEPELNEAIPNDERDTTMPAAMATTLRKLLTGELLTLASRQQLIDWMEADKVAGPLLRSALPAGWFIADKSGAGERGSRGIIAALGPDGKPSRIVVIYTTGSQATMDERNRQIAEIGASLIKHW
Sequence of class B enzyme CcrA (P25910 19-249): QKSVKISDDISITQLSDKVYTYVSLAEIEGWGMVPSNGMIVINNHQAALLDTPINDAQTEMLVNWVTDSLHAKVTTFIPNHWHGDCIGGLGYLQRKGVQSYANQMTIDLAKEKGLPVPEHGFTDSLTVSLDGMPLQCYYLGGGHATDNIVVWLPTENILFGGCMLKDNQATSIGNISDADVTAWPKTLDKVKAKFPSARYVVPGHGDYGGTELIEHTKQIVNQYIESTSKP
Sequence of class C enzyme AmpC (P05364 21-381): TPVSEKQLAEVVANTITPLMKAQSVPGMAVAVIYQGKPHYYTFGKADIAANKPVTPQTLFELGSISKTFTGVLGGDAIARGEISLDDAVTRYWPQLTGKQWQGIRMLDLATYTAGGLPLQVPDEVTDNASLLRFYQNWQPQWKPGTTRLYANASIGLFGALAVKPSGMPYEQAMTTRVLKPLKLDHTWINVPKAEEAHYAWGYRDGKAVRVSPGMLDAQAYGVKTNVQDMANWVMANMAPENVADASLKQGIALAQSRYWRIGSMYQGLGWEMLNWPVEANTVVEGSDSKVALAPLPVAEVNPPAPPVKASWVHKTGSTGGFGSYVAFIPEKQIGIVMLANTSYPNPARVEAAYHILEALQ
Sequence of class A β-lactamase Imi-1 (Q46991 28-292): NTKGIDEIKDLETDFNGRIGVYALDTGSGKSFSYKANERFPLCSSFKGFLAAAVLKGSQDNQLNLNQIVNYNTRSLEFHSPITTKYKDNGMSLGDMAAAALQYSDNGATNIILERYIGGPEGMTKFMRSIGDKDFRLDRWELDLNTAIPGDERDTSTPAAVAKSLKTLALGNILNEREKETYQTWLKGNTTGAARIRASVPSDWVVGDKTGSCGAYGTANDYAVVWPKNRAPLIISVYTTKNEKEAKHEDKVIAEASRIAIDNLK

Row | SMILES | IC50 [1, 6] [nM] | IC50 [2, 7] [nM] | IC50 [3] [nM] | IC50 [4, 8] [nM] | ED50 ([5]; Ratio of Piperacillin vs. Inhibitor 2:1, read-out: ED50) [mg/kg] | IC50 [1] [nM] | IC50 [2] [nM] | ED50 [5, 9] [mg/kg] | IC50 [4] [nM] | ED50 [5, 10] [mg/kg]
1 | CC(=O)N1CCc2sc(/C=C3/C(=O)N4C(C(=O)[O-])=CS[C@H]34)cc2C1.[Na+] (single isomer, unassigned) [Example 34, Sodium salt] | 99 | 34 | 4.2 | 6.5 |  |  |  |  |  | 
2 | CN1CCn2cc(/C=C3/C(=O)N4C(C(=O)O)=CS[C@H]34)nc2C1 [Example 2, (5R),(6Z)-6-(7-Methyl-5,6,7,8-tetrahydroimidazo[1,2-a]pyrazin-2-ylmethylene)-7-oxo-4-thia-1-aza-bicyclo[3.2.0]hept-2-ene-2-carboxylic acid, sodium salt] | 120 | 22 | 4.4 | 5.8 | > 64 |  |  |  |  | 
3 | O=C(O)C1=CS[C@@H]2/C(=C\c3cn4c(n3)CNCC4)C(=O)N12 [Example 3, (5R),(6Z)-7-Oxo-6-(5,6,7,8-tetrahydroimidazo[1,2-a]pyrazin-2-ylmethylene)-4-thia-1-azabicyclo[3.2.0]hept-2-ene-2-carboxylic acid, sodium salt] |  |  | 5.4 | 6.2 |  | 320 | 28 | 16 to 32 |  | 
4 | O=C(O)C1=CS[C@@H]2/C(=C\c3cn4c(n3)COCC4)C(=O)N12 [Example 7, (5R),(6Z)-6-(5,6-Dihydro-8H-imidazo[2,1-c][1,4]oxazin-2-ylmethylene)-7-oxo-4-thia-1-azabicyclo[3.2.0]hept-2-ene-2-carboxylic acid, sodium salt] | 66 |  | 0.4 | 4.8 |  |  | 7.8 | 22.8 |  | 
5 | O=C(O)C1=CS[C@@H]2/C(=C\c3cc4n(n3)CCC4)C(=O)N12 [Example 8, (5R),(6Z)-6-(5,6-Dihydro-4H-pyrrolo[1,2-b]pyrazol-2-ylmethylene)-7-oxo-4-thia-1-azabicyclo[3.2.0]hept-2-ene-2-carboxylic acid, sodium salt] | 14 | 50 | 1.2 | 1.5 |  |  |  |  |  | 
6 | O=C([O-])C1=CS[C@@H]2/C(=C\c3cc4n(n3)CCCC4)C(=O)N12.[Na+] [Example 9, (5R)(6Z)-7-Oxo-6-(4,5,6,7-tetrahydropyrazolo[1,5-a]pyridin-2-ylmethylene)-4-thia-1-azabicyclo[3.2.0]hept-2-ene-2-carboxylic acid, sodium salt] | 62 |  | 2.2 |  |  |  | 90 | 31.3 | 3.2 | 
7 | CN1Cc2nc(/C=C3/C(=O)N4C(C(=O)O)=CS[C@H]34)cn2CC1=O [Example 10, (5R),(6Z)-6-(7-Methyl-6-oxo-5,6,7,8-tetrahydro-imidazo[1,2-a]pyrazin-2-ylmethylene)-7-oxo-4-thia-1-aza-bicyclo[3.2.0]hept-2-ene-2-carboxylic acid sodium salt] | 140 | 65 | 10 | 3 |  |  |  |  |  | 
8 | O=C(O)C1=CS[C@@H]2/C(=C\c3cc4n(n3)CCOC4=O)C(=O)N12 [Example 14, (5R,6Z)-7-oxo-6-[(4-oxo-6,7-dihydro-4H-pyrazolo[5,1-c][1,4]oxazin-2-yl)methylene]-4-thia-1-azabicyclo[3.2.0]hept-2-ene-2-carboxylic Acid] | 26 | 68 | 2.5 | 3.8 |  |  |  |  |  | 
9 | O=C(O)C1=CSC2C(=Cc3cc4c(s3)CCOC4)C(=O)N12 (centres unmarked) [Example 15, 6-(6,7-Dihydro-4H-thieno[3,2-c]pyran-2-ylmethylene)-7-oxo-4-thia-1-aza-bicyclo[3.2.0]hept-2-ene-2-carboxylic acid] | 14 | 8.6 | 1.2 | 3.8 |  |  |  |  |  | 
10 | O=C(O)C1=CSC2C(=Cc3cc4c(s3)CCSC4)C(=O)N12 (centres unmarked) [Example 16, 6-(6,7-Dihydro-4H-thieno[3,2-c]thiopyran-2-ylmethylene)-7-oxo-4-thia-1-aza-bicyclo[3.2.0]hept-2-ene-2-carboxylic acid] | 12 | 25 | 3.1 | 4.2 |  |  |  |  |  | 
11 | CCOC(=O)N1CCc2sc(C=C3C(=O)N4C(C(=O)O)=CSC34)cc2C1 (centres unmarked) [Example 18, 2-(2-Carboxy-7-oxo-4-thia-1-aza-bicyclo[3.2.0]hept-2-en-6-ylidenemethyl)-6,7-dihydro-4H-thieno[3,2-c]pyridine-5-carboxylic acid ethyl ester] | 120 | 50 | 2.8 | 9.2 |  |  |  |  |  | 
12 | O=C(O)C1=CS[C@@H]2/C(=C\c3cn4c(n3)CN(Cc3ccccc3)CC4)C(=O)N12 [Example 20, (5R),(6Z)-6-(7-Benzyl-5,6,7,8-tetrahydroimidazo[1,2-a]pyrazin-2-ylmethylene)-7-oxo-4-thia-1-azabicyclo[3.2.0]hept-2-ene-2-carboxylic acid, sodium salt] | 18 | 9.6 | 1.4 | 3.1 |  |  |  |  |  | 
13 | O=C(O)C1=CS[C@@H]2/C(=C\c3cc4c(s3)CCN(Cc3cccnc3)C4)C(=O)N12 [Example 21] | 280 | 40 | 9.8 | 18 |  |  |  |  |  | 
14 | O=C([O-])C1=CS[C@@H]2/C(=C\c3cc4n(n3)CSCC4)C(=O)N12.[Na+] [Example 28, (5R)(6Z)-6-(4,5-Dihydro-6-thia-1,7a-diazainden-2-ylmethylene)-7-oxo-4-thia-1-azabicyclo[3.2.0]hept-2-ene-2-carboxylic acid, sodium salt] |  |  |  |  |  |  |  |  |  | 31
15 | O=C(O)C1=CS[C@@H]2/C(=C\c3cnc4n3CCSC4)C(=O)N12 [Example 30, (5R),(6Z)-6-(5,6-Dihydro-8-H-imidazo[2,1-c][1,4]thiazin-3-ylmethylene)-7-oxo-4-thia-1-azabicyclo[3.2.0]hept-2-ene-2-carboxylic acid] | 7.8 | 2300 | 2.9 | 2.5 |  |  |  |  |  | 
16 | O=C([O-])C1=CS[C@@H]2/C(=C\c3cc4n(n3)CCS4)C(=O)N12.[Na+] [Example 32, (5R)(6Z)-6-(2,3-Dihydropyrazolo[5,1-b]thiazol-6-ylmethylene)-7-oxo-4-thia-1-azabicyclo[3.2.0]hept-2-ene-2-carboxylic acid, sodium salt] |  |  |  |  |  |  |  |  |  | 46
